Laboratory results from ChEMBL document CHEMBL1201862, “PubChem BioAssay data set” (2004).
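48-hour exposure; five concentrations; linearly interpolated endpoints. At the GI50, growth is halved.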 Calls of active or inactive are those of the source. Rule as the data show it: active = GI50 up to about 1.1 µM and inactive = higher.

Columns and labels:
Experiment in all cases: inhibition of tumour cell growth, NCI panel, 48 h
[1] = tested on: PC-3
[2] = tested on: TK-10
[3] = tested on: ACHN
[4] = tested on: SF-295
[5] = tested on: MDA-MB-231
[6] = tested on: SK-MEL-2
[7] = tested on: DU-145
[8] = tested on: OVCAR-4
[9] = tested on: SW-620
[10] = tested on: NCI-H460
[11] = tested on: A498
[12] = tested on: UACC-257
[13] = tested on: NCI-H23
[14] = tested on: MOLT-4
[15] = tested on: 786-0
[16] = tested on: UO-31
[17] = tested on: IGROV-1
[18] = tested on: SF-539
[19] = tested on: K562
[20] = tested on: T47D

SMILES | GI50 [1] | GI50 [2] | GI50 [3] | GI50 [4] | GI50 [5] | GI50 [6] | GI50 [7] | GI50 [8] | GI50 [9] | GI50 [10] | GI50 [11] | GI50 [12] | GI50 [13] | GI50 [14] | GI50 [15] | GI50 [16] | GI50 [17] | GI50 [18] | GI50 [19] | GI50 [20]
COc1cc(C2c3cc4c(cc3[C@@H](Nc3ccc5c(c3)OCCO5)C3COC(=O)[C@H]23)OCO4)cc(OC)c1O (stereo not given in full) | 0.918 µM (active) | 1.52 µM (inactive) | 0.585 µM (active) | 0.301 µM (active) | 16.4 µM (inactive) | 2.19 µM (inactive) | 0.743 µM (active) | 5.97 µM (inactive) | 0.586 µM (active) | 0.0156 µM (active) | 0.19 µM (active) | 2.57 µM (inactive) | 0.207 µM (active) | 0.035 µM (active) | 0.199 µM (active) | 0.499 µM (active) | 0.906 µM (active) | 0.435 µM (active) | 0.413 µM (active) | 
COc1ccc(CC2NC(=O)/C=C/CC(C(C)C3OC3c3ccccc3)OC(=O)C(CC(C)C)OC(=O)C(C)CNC2=O)cc1Cl (stereo not given) | 1.04e-05 µM (active) |  | 2.81e-05 µM (active) | 1.34e-05 µM (active) | 1.47e-05 µM (active) | 0.001 µM (active) | 1.21e-05 µM (active) |  | 1.36e-05 µM (active) | < 1e-05 µM (active) | < 1e-05 µM (active) | 4.07e-05 µM (active) | 2.07e-05 µM (active) | 3.4e-05 µM (active) | < 1e-05 µM (active) |  | 2.36e-05 µM (active) | 1.34e-05 µM (active) | < 1e-05 µM (active) | 
CC#Cc1ccc(-c2ccccc2)s1 | > 100 µM (inactive) | > 100 µM (inactive) | > 100 µM (inactive) | > 100 µM (inactive) | > 100 µM (inactive) | > 100 µM (inactive) | > 100 µM (inactive) | > 100 µM (inactive) | > 100 µM (inactive) | > 100 µM (inactive) | > 100 µM (inactive) | > 100 µM (inactive) | 68.9 µM (inactive) | > 100 µM (inactive) | > 100 µM (inactive) | > 100 µM (inactive) | > 100 µM (inactive) | > 100 µM (inactive) |  | 
CCOC(=O)c1nc2c3c(ncn2n1)Oc1c(c(-c2ccccc2)nn1-c1ccccc1)C3c1ccc(OC)c(OC)c1 (stereo not given) | > 100 µM (inactive) | > 100 µM (inactive) | 47 µM (inactive) | 23.8 µM (inactive) | 37.2 µM (inactive) | > 100 µM (inactive) | > 100 µM (inactive) | 6.04 µM (inactive) | > 100 µM (inactive) | 22.3 µM (inactive) |  | > 100 µM (inactive) | > 100 µM (inactive) | > 100 µM (inactive) | 31 µM (inactive) | > 100 µM (inactive) | 52.1 µM (inactive) | 11.9 µM (inactive) | 7.24 µM (inactive) | 
O=C(O)CCCNc1ncc2c(n1)-c1ccccc1OC2 | > 100 µM (inactive) | > 100 µM (inactive) | > 100 µM (inactive) | > 100 µM (inactive) | > 100 µM (inactive) | > 100 µM (inactive) | > 100 µM (inactive) | > 100 µM (inactive) | > 100 µM (inactive) | > 100 µM (inactive) |  | > 100 µM (inactive) | 77.4 µM (inactive) | > 100 µM (inactive) | > 100 µM (inactive) | 68.2 µM (inactive) | 47.8 µM (inactive) | > 100 µM (inactive) | > 100 µM (inactive) | 
S=C=NC1CCC(c2cc3ccccc3s2)(N2CCCCC2)CC1 (stereo not given) |  | 2 µM (inactive) | 1.93 µM (inactive) | 2.58 µM (inactive) |  |  | 2.08 µM (inactive) | 1.87 µM (inactive) | 2.02 µM (inactive) | 1.87 µM (inactive) | 2.26 µM (inactive) | 1.73 µM (inactive) | 1.92 µM (inactive) | 0.127 µM (active) | 1.78 µM (inactive) | 2.19 µM (inactive) |  | 1.95 µM (inactive) | 0.0546 µM (active) | 2.99 µM (inactive)
Cc1csc2n(C)c(=O)c3ccccc3[n+]12 | > 100 µM (inactive) | > 100 µM (inactive) | > 100 µM (inactive) | > 100 µM (inactive) | > 100 µM (inactive) | > 100 µM (inactive) | > 100 µM (inactive) | > 100 µM (inactive) | > 100 µM (inactive) | > 100 µM (inactive) |  | > 100 µM (inactive) | > 100 µM (inactive) | > 100 µM (inactive) | > 100 µM (inactive) | > 100 µM (inactive) | > 100 µM (inactive) | > 100 µM (inactive) | > 100 µM (inactive) | > 100 µM (inactive)
O=c1oc2c(Cl)cc(Cl)cc2cc1C1=CSC2=NCCN12 | 42.1 µM (inactive) | 73.1 µM (inactive) | 49.7 µM (inactive) | 40 µM (inactive) | 28.9 µM (inactive) | > 100 µM (inactive) | 40.1 µM (inactive) | 39.7 µM (inactive) | 50.5 µM (inactive) | 57.5 µM (inactive) |  | > 100 µM (inactive) | 46 µM (inactive) | 39.3 µM (inactive) | 40.8 µM (inactive) | 29.3 µM (inactive) | 48.8 µM (inactive) | > 100 µM (inactive) | 34.4 µM (inactive) | 36.5 µM (inactive)
CC(=O)O/C(C)=C\C(=O)O/N=C(\N)c1ccc(C)cc1 |  | 63.8 µM (inactive) | 33 µM (inactive) | 35.2 µM (inactive) |  | 28.6 µM (inactive) |  | 25.8 µM (inactive) | 39.4 µM (inactive) | 29.6 µM (inactive) | 62.7 µM (inactive) | 30.8 µM (inactive) | 22.2 µM (inactive) | 23.1 µM (inactive) | 52 µM (inactive) | 61.1 µM (inactive) | 28.3 µM (inactive) | 20.6 µM (inactive) | 19.6 µM (inactive) | 
COc1ccc(CSc2ccccc2Cn2cccc2)cc1OC |  | > 100 µM (inactive) | 10.4 µM (inactive) | 25.5 µM (inactive) |  |  | > 100 µM (inactive) | 39.8 µM (inactive) | > 100 µM (inactive) | > 100 µM (inactive) | 27.6 µM (inactive) | 27.8 µM (inactive) | 10.9 µM (inactive) | > 10 µM (inactive) | > 100 µM (inactive) | 39.4 µM (inactive) | > 100 µM (inactive) | > 100 µM (inactive) | 27 µM (inactive) | 35.2 µM (inactive)
COc1cc(C(=O)C/C(CCC(=O)Nc2ccccc2[N+](=O)[O-])=N\NC(=O)CC#N)ccc1O |  | > 100 µM (inactive) | > 100 µM (inactive) | > 100 µM (inactive) |  | > 100 µM (inactive) |  | > 100 µM (inactive) | > 100 µM (inactive) | > 100 µM (inactive) | 40.7 µM (inactive) | > 100 µM (inactive) | > 100 µM (inactive) | > 100 µM (inactive) | > 100 µM (inactive) | > 100 µM (inactive) | > 100 µM (inactive) | > 100 µM (inactive) | > 100 µM (inactive) | 
COc1cc(C2CC(C)(Nc3ccccc3)Oc3cc4c(cc32)OCO4)cc(OC)c1OC (stereo not given) | 0.251 µM (active) | 1.88 µM (inactive) | 0.499 µM (active) | 0.199 µM (active) | 0.853 µM (active) | 0.303 µM (active) | 0.352 µM (active) | 1.84 µM (inactive) | 0.234 µM (active) | 0.327 µM (active) | 2.97 µM (inactive) | 2.2 µM (inactive) | 0.301 µM (active) | 0.535 µM (active) | 0.298 µM (active) | 1.2 µM (inactive) | 0.386 µM (active) | 0.171 µM (active) | 0.0933 µM (active) | 
CCOC(=O)C1=C(C)N(Cc2ccccc2)C(C)=C(C(=O)OCC)C1c1ccccc1O |  | 47.5 µM (inactive) | 28.1 µM (inactive) | 33.1 µM (inactive) |  | 20 µM (inactive) |  | 34.8 µM (inactive) | 39.9 µM (inactive) | 42.3 µM (inactive) | 33.7 µM (inactive) | 26.9 µM (inactive) | 24 µM (inactive) | 11.3 µM (inactive) | 44.6 µM (inactive) | 32.1 µM (inactive) | 25.5 µM (inactive) | 27.7 µM (inactive) | 33.4 µM (inactive) | 
O=C1CC(C[C@H](O)C2CCCCC2O)CC(=O)N1Cc1ccccc1 (stereo not given in full) |  | > 100 µM (inactive) | > 100 µM (inactive) | > 100 µM (inactive) |  | > 100 µM (inactive) |  | > 100 µM (inactive) | > 100 µM (inactive) | > 100 µM (inactive) | > 100 µM (inactive) | > 100 µM (inactive) | > 100 µM (inactive) | > 100 µM (inactive) | > 100 µM (inactive) | > 100 µM (inactive) | > 100 µM (inactive) | > 100 µM (inactive) | > 100 µM (inactive) | 
Nc1ccccc1C(=O)CCC1C(=O)NC(=S)NC1=O | > 100 µM (inactive) | > 100 µM (inactive) | > 100 µM (inactive) | > 100 µM (inactive) |  | > 100 µM (inactive) | > 100 µM (inactive) | > 100 µM (inactive) | > 100 µM (inactive) | > 100 µM (inactive) | > 100 µM (inactive) | > 100 µM (inactive) | > 100 µM (inactive) | > 100 µM (inactive) | > 100 µM (inactive) | > 100 µM (inactive) | > 100 µM (inactive) | > 100 µM (inactive) | > 100 µM (inactive) | > 100 µM (inactive)
CN(C)c1ccc(-c2nc(-c3cc4c(ccc5ccccc54)oc3=O)cs2)cc1 | > 100 µM (inactive) | > 100 µM (inactive) | > 100 µM (inactive) | > 100 µM (inactive) | > 100 µM (inactive) | > 100 µM (inactive) | > 100 µM (inactive) | > 100 µM (inactive) | > 100 µM (inactive) | > 100 µM (inactive) |  | > 100 µM (inactive) |  | > 100 µM (inactive) | > 100 µM (inactive) | > 100 µM (inactive) | > 100 µM (inactive) | > 100 µM (inactive) | > 100 µM (inactive) | > 100 µM (inactive)
